Experimental data taken from ChEMBL document CHEMBL1201862, “PubChem BioAssay data set” (2004).
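Five compound concentrations were applied to cells in 96-well plates for 48 hours; endpoints were derived by simple linear interpolation of the resulting dose-response curve. At the GI50, growth is halved.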 The source made the active and inactive calls. Rule as the data show it: active = GI50 up to about 1.1 µM and inactive = higher.

How the values were obtained:
Assay in all cases: NCI-60 cell line screen, 48 h
EKVX = tested on: EKVX
UO-31 = tested on: UO-31
DU-145 = tested on: DU-145
NCI-H522 = tested on: NCI-H522
OVCAR-5 = tested on: OVCAR-5
NCI/ADR-RES = tested on: NCI/ADR-RES
M14 = tested on: M14
UACC-257 = tested on: UACC-257
NCI-H23 = tested on: NCI-H23
MDA-MB-435 = tested on: MDA-MB-435
CCRF-CEM = tested on: CCRF-CEM
MDA-MB-231 = tested on: MDA-MB-231
SNB-75 = tested on: SNB-75
IGROV-1 = tested on: IGROV-1
K562 = tested on: K562
OVCAR-4 = tested on: OVCAR-4
MOLT-4 = tested on: MOLT-4
SF-268 = tested on: SF-268
A498 = tested on: A498
Hs-578T = tested on: Hs-578T

Measured: GI50

Cc1ccc(C2=C(C#N)C(=O)N3CCN=C3S2)cc1
inactive: EKVX > 100 µM | UO-31 > 100 µM | DU-145 > 100 µM | NCI-H522 > 100 µM | OVCAR-5 > 100 µM | NCI/ADR-RES > 100 µM | M14 > 100 µM | UACC-257 > 100 µM | NCI-H23 > 100 µM | MDA-MB-435 > 100 µM | CCRF-CEM > 100 µM | MDA-MB-231 > 100 µM | SNB-75 > 100 µM | IGROV-1 > 100 µM | K562 58.2 µM | OVCAR-4 > 100 µM | MOLT-4 > 100 µM

Cc1c(C(Cc2ccccc2N(C)C(=O)/C=C\C(=O)O)c2c[nH]c3ccccc23)c2ccccc2n1C (stereo not drawn)
inactive: EKVX 16.3 µM | UO-31 14.5 µM | SF-268 20.6 µM | A498 17.9 µM | NCI-H522 15.1 µM | OVCAR-5 21.2 µM | M14 15.4 µM | UACC-257 15.7 µM | NCI-H23 16.8 µM | CCRF-CEM 14.9 µM | SNB-75 16.5 µM | IGROV-1 18.2 µM | K562 18.7 µM | OVCAR-4 22.5 µM | MOLT-4 22.9 µM

COc1ccc2[nH]c3c(O)nncc3c2c1
inactive: EKVX 8.45 µM | UO-31 > 100 µM | SF-268 > 100 µM | A498 > 100 µM | NCI-H522 > 100 µM | OVCAR-5 > 100 µM | M14 > 100 µM | UACC-257 > 100 µM | NCI-H23 > 100 µM | CCRF-CEM > 100 µM | SNB-75 16.4 µM | IGROV-1 > 100 µM | K562 > 100 µM | OVCAR-4 > 100 µM | MOLT-4 > 100 µM

O=C1NC(=S)N/C1=C/c1c(-c2ccccc2)[nH]c2ccccc12
inactive: EKVX 14.5 µM | UO-31 9.23 µM | SF-268 25.7 µM | A498 11.4 µM | NCI-H522 13.2 µM | OVCAR-5 17.9 µM | NCI/ADR-RES 18.6 µM | UACC-257 15.6 µM | NCI-H23 14.1 µM | MDA-MB-435 13.7 µM | Hs-578T 16.6 µM | MDA-MB-231 13.7 µM | SNB-75 15.3 µM | IGROV-1 13.8 µM | K562 10.1 µM | OVCAR-4 16.1 µM | MOLT-4 12.4 µM

COc1cc(CNc2nc3cc(C(F)(F)F)ccc3nc2C(=O)O)cc(OC)c1OC
inactive: EKVX 20.1 µM | UO-31 18.6 µM | SF-268 27.7 µM | DU-145 33.2 µM | A498 24.2 µM | NCI-H522 29.2 µM | OVCAR-5 49.3 µM | NCI/ADR-RES 24.4 µM | M14 17.5 µM | UACC-257 21.5 µM | NCI-H23 33.8 µM | MDA-MB-435 23.4 µM | Hs-578T 10.4 µM | SNB-75 19.9 µM | K562 28 µM | MOLT-4 20.7 µM

O=c1c2ccccc2n2c(S)nnc2n1-c1ccccc1
inactive: EKVX > 100 µM | UO-31 > 100 µM | SF-268 > 100 µM | DU-145 > 100 µM | A498 > 100 µM | NCI-H522 > 100 µM | OVCAR-5 > 100 µM | NCI/ADR-RES > 100 µM | M14 > 100 µM | UACC-257 > 100 µM | NCI-H23 > 100 µM | MDA-MB-435 > 100 µM | CCRF-CEM > 100 µM | MDA-MB-231 > 100 µM | SNB-75 21.1 µM | IGROV-1 > 100 µM | K562 > 100 µM | OVCAR-4 > 100 µM | MOLT-4 > 100 µM

O=[N+]([O-])c1ccc2c(c1)OCCOCCOc1ccc([N+](=O)[O-])cc1OCCOCCO2
inactive: EKVX > 100 µM | UO-31 > 100 µM | SF-268 > 100 µM | A498 > 100 µM | NCI-H522 > 100 µM | OVCAR-5 > 100 µM | M14 > 100 µM | UACC-257 > 100 µM | NCI-H23 > 100 µM | CCRF-CEM > 100 µM | SNB-75 > 100 µM | IGROV-1 > 100 µM | K562 > 100 µM | OVCAR-4 > 100 µM | MOLT-4 > 100 µM

C=C1CC/C=C(/C(=O)O)CC[C@H]2[C@@H]1CC2(C)C
inactive: EKVX > 100 µM | UO-31 > 100 µM | SF-268 > 100 µM | DU-145 > 100 µM | A498 > 100 µM | NCI-H522 > 100 µM | OVCAR-5 > 100 µM | M14 > 100 µM | UACC-257 > 100 µM | NCI-H23 > 100 µM | MDA-MB-435 > 100 µM | CCRF-CEM > 100 µM | Hs-578T > 100 µM | MDA-MB-231 > 100 µM | IGROV-1 > 100 µM | K562 > 100 µM | OVCAR-4 > 100 µM | MOLT-4 > 100 µM

COc1ccc2c3c(n(Cc4ccccc4)c(=O)c2c1)-c1cc(OC)c(OC)cc1C3C (stereo not drawn)
inactive: EKVX 10.6 µM | UO-31 22.2 µM | SF-268 9.91 µM | A498 30.5 µM | NCI-H522 9.08 µM | OVCAR-5 > 28.4 µM | M14 44 µM | UACC-257 69.8 µM | NCI-H23 6.92 µM | CCRF-CEM > 89.5 µM | SNB-75 13.6 µM | IGROV-1 37.6 µM | K562 9.89 µM | OVCAR-4 6.61 µM | MOLT-4 8.32 µM

C=CCCCN1CCCC(C)C1=S (stereo not drawn)
inactive: EKVX > 100 µM | UO-31 > 100 µM | SF-268 > 100 µM | A498 > 100 µM | NCI-H522 > 100 µM | OVCAR-5 > 100 µM | M14 > 100 µM | UACC-257 > 100 µM | NCI-H23 > 100 µM | CCRF-CEM > 100 µM | SNB-75 52 µM | IGROV-1 > 100 µM | K562 > 100 µM | OVCAR-4 > 100 µM | MOLT-4 > 100 µM

Clc1ccc(C2=NOC3C4CCC(C4)C23)cc1 (stereo not drawn)
inactive: EKVX > 100 µM | UO-31 > 100 µM | SF-268 > 100 µM | A498 > 100 µM | NCI-H522 59.8 µM | OVCAR-5 > 100 µM | M14 > 100 µM | UACC-257 > 100 µM | NCI-H23 > 100 µM | CCRF-CEM > 100 µM | SNB-75 > 100 µM | IGROV-1 > 100 µM | K562 > 100 µM | OVCAR-4 > 100 µM | MOLT-4 59.4 µM

O=C(C/N=C(\CN(c1ccccc1)c1ccccc1)Oc1c(Cl)cc(Cl)cc1Cl)n1cnc2ccccc21
inactive: EKVX 50.7 µM | SF-268 > 100 µM | DU-145 > 100 µM | NCI-H522 84.1 µM | OVCAR-5 28 µM | NCI/ADR-RES 38.3 µM | M14 > 100 µM | UACC-257 > 100 µM | NCI-H23 > 100 µM | MDA-MB-435 76.6 µM | CCRF-CEM 33.8 µM | Hs-578T > 100 µM | MDA-MB-231 74 µM | SNB-75 > 100 µM | IGROV-1 39.6 µM | K562 80.7 µM | OVCAR-4 > 100 µM | MOLT-4 18.1 µM

Cc1cc(Br)c(O)c(-c2cscn2)c1
inactive: EKVX 33.1 µM | UO-31 12.7 µM | A498 23.7 µM | OVCAR-5 20.6 µM | NCI/ADR-RES 24 µM | M14 23.6 µM | UACC-257 > 10 µM | NCI-H23 14.4 µM | MDA-MB-435 20.7 µM | CCRF-CEM 6.55 µM | Hs-578T 19.3 µM | IGROV-1 22.9 µM | K562 7.64 µM | OVCAR-4 14.6 µM

COc1ccc(/C=C2/C[N+](C)(C)C/C(=C/c3ccc(OC)cc3)C2=O)cc1
inactive: EKVX > 100 µM | UO-31 > 100 µM | SF-268 26.9 µM | A498 68.4 µM | NCI-H522 17.9 µM | OVCAR-5 > 68.7 µM | M14 70.5 µM | UACC-257 29.4 µM | NCI-H23 56 µM | CCRF-CEM 18.5 µM | SNB-75 66.7 µM | IGROV-1 23.9 µM | K562 11.6 µM | OVCAR-4 36 µM | MOLT-4 16.7 µM

CC1(C)CC(=O)C(C(=O)C(=O)NC2=C(Cl)C(=O)c3ccccc3C2=O)C(=O)C1
inactive: EKVX > 100 µM | UO-31 57.4 µM | SF-268 > 100 µM | A498 > 100 µM | NCI-H522 24 µM | OVCAR-5 > 100 µM | M14 > 100 µM | UACC-257 > 100 µM | NCI-H23 > 100 µM | CCRF-CEM 36 µM | SNB-75 71.1 µM | IGROV-1 > 100 µM | K562 32 µM | OVCAR-4 63.5 µM | MOLT-4 20.1 µM

N#CC1C(=O)NC23CCCCC2C1c1ccccc1O3 (stereo not drawn)
inactive: EKVX > 100 µM | UO-31 > 100 µM | SF-268 2.1 µM | DU-145 > 100 µM | A498 > 100 µM | NCI-H522 > 100 µM | OVCAR-5 > 100 µM | NCI/ADR-RES > 100 µM | M14 > 100 µM | UACC-257 > 100 µM | NCI-H23 > 100 µM | MDA-MB-435 > 100 µM | CCRF-CEM 74.8 µM | MDA-MB-231 > 100 µM | SNB-75 > 100 µM | IGROV-1 > 100 µM | K562 > 100 µM | OVCAR-4 > 100 µM | MOLT-4 > 100 µM

CCc1ccccc1NC(=O)C(=O)CC(=O)c1sc(Nc2ccccc2)nc1C
inactive: EKVX 29.4 µM | UO-31 > 100 µM | SF-268 > 100 µM | A498 > 100 µM | NCI-H522 73.5 µM | OVCAR-5 > 100 µM | M14 > 100 µM | UACC-257 > 100 µM | NCI-H23 > 100 µM | CCRF-CEM 32.1 µM | SNB-75 67.9 µM | IGROV-1 > 100 µM | K562 97.1 µM | OVCAR-4 > 100 µM | MOLT-4 48.6 µM
